Test results: US20070203215A1, “Methods & Compositions For Enhancing Pharmaceutical Treatments” (Taiji Biomedical, Inc., priority 1999, published 2007)
Values joined by “and” are separate entries in the source; they are usually repeats but may differ in a detail not shown here. Identical values can stand only once. Blank lines part the entries; values can stand above or below the molecule they belong to.

Legend:
[1] = Enhancement of the oral bioavailability of paclitaxel and docetaxel in rats; format: in vivo; settings: male, Sprague-Dawley, rat, plasma, 10 mg/kg, Drug alone (10 mg/kg) oral; for AUC(0-t): read-out: AUC0-8
Protocol: In a further example, separate groups of eight male Sprague-Dawley rats (250-300 g body weight) with cannulae inserted into the jugular vein were purchased from Harlan-Sprague Dawley (Madison, Wis.). Animals were allowed free movement and access to water but were fasted for at least 8 h prior to the dose until study completion. […] Immediately prior to administration the mixture was diluted in saline to provide a paclitaxel or docetaxel concentration of 1mg/ml. Animals were then administered 10 μl/g body weight by oral gavage.
Serial blood samples (500 μl) were drawn prior to each dose (time 0) and at 0.5, 1, 2, 3, 4, 6 and 8 h through a cannula inserted into the jugular vein. The blood was collected into Microtainer® tubes containing EDTA anticoagulant. Whole blood was centrifuged under refrigeration at 2800 rpm for 10-20 minutes. Plasma samples were stored at −20° C. until analysis using a validated HPLC-MS method. Maximum plasma paclitaxel concentration (Cmax) and time to achieve this concentration (Tmax) were measured from concentration vs. time profiles. Area under the concentration vs. time curve from 0-8 hours (AUC0-8) was calculated using the linear and log trapezoidal methods in the rising and declining phases of the concentration vs. time curve respectively.

[2] = Blood-brain barrier penetration of loperamide, mouse hot-plate test; format: in vivo, mice; settings: loperamide alone, i.v. 1-16 mg/kg
Description: These increases were dose dependent with respect to loperamide.

[3] = Oral paclitaxel bioavailability enhancement in rats (mesylate salt); format: in vivo; settings: male, Sprague Dawley, rat, plasma, Group 2: paclitaxel 40 mg/kg p.o. + vehicle
Protocol: A total of 21 male Sprague Dawley rats were used. Animals were approximately 8 weeks of age at arrival and weighed ca 327-359 g.
Following analysis of paclitaxel, all remaining plasma were tested for a determination of the Formula 2 compound concentration.
Plasma samples were analyzed for unchanged paclitaxel using a liquid chromatography/mass spectroscopy (“LC/MS”) assay. […] The highest observable concentration was used as the peak concentration (Cmax). Time to Cmax was denoted as Tmax. […] The area under the plasma concentration curve extrapolated to infinity (AUC(I)) was calculated as the sum of AUC(0-t) plus the ratio of the last plasma concentration to the elimination rate constant. The terminal elimination constant (K) was calculated from the last 3 non-zero points of the log-linear regression. Half-life (tot) was determined by dividing 0.693 by K. The apparent plasma clearance (CL/F) was calculated for paclitaxel by dividing the nominal dose administered by AUC(I). […] Where values were below the limit of quantification, zero was used for pharmacokinetic analysis. Statistical analysis consisted of a Student-T-test with Two-sample unequal variance approximation and was performed on AUC90-t) and Cmax values to compare the Formula 2 compound treated animals vs. the corresponding vehicle treated animals.

MDA/LCC6^MDR1 tumors = assay: In vivo antitumor efficacy, orthotopic MDA/LCC6^MDR1 tumors; set-up: species or system SCID/RAG2 mice; settings: single agent alone; paclitaxel 12 mg/kg i.v.; Formula 2 free base 30 mg/kg p.o.
Protocol: Anti-tumor efficacy experiments with orthotopic MDA/LCC6 and MDA/LCC6^MDR1 tumors were conducted in female SCID/RAG2 mice. Ascites propagated cells (2×10^6 in 50 μl) were injected into mammary fat pads bilaterally on day 0 before randomization into groups of 5 mice per group. Paclitaxel (12 mg/kg/dose) was administered QD i.v. (tail vein) in 200 μl saline/Cremophor/ethanol (8/1/1 by volume) on days 5, 12, 19, and 26. The compound of Formula 2-free base (30 mg/kg/dose) was administered BID p.o. by gavage in 100 μl PEG 400/Tween 20 (9/1 by volume) on days 4-6, 11-13, 18-20, and 25-27. Mean body weights were recorded at least every other day. Tumor weight was monitored approximately every other day by caliper measurements and calculated according to the formula (Tumor weight =(length×width^2)÷2). This conversion formula was verified by comparing the calculation derived tumor weights to excised and weighed tumors. Animals bearing ulcerated tumors or where tumor weight exceeded 10% of the animal's body weight were terminated. The weights of the bilateral tumors were averaged for each mouse and mean tumor weights for each treatment group±standard error of the mean were calculated. Statistical analysis was carried out by Mann-Whitney test using GraphPad Prism software (San Diego, Calif.).
The compound of Formula 2 was administered the afternoon before, 2 hours before and 6 hours after each paclitaxel dose. The ability of orally administered Formula 2 compound to reverse MDR in solid tumors in vivo was assessed with the MDA/LCC6^MDR1 model. Because the compound of Formula 2 produced no effect on paditaxel blood levels, focus on up-front therapy (for naive animals) or minimal residual disease models was maintained, as opposed to established tumors. MDA/LCC6^MDR1 cells that express P-gp were resistant to paclitaxel treatment in vitro and this resistance was reversed by the compound of Formula 2 (FIG. 1). […] Similar results were obtained in three independent experiments with two different strains of immunocompromised mice (SCID/RAG-2 and athymic). […]

[4] = single agent + vehicle; paclitaxel 24 mg/kg i.v. Q5D x6 + 36 mg/kg i.v. Q5D x2; Formula 2 compound 30 mg/kg p.o. afternoon before and BID day of treatments
Protocol: Non-tumor bearing athymic mice were treated with the compound of Formula 2 and (or) paclitaxel as described.

tumor-bearing mice = settings: 20 mg/kg paclitaxel alone once per week
[5] = Saquinavir in rat cerebrospinal fluid and brain after oral ONT-093 or vehicle; format: in vivo, Sprague Dawley rats; settings: Group 4: after vehicle, 30 min after saquinavir dose, individual animals 4001-4004
Protocol: (§1) Blood samples (ca 0.3 mL) were collected from 8 selected rats by jugular venipuncture during slight anesthesia pre-dose and at 0.25, 0.5, 1, 2, 4 and 8 post-dose (saquinavir dose). Cerebrospinal fluid (CSF) and brain tissue were collected terminally from the remaining 8 rats at ca 30 min following administration of the dose of saquinavir. Blood samples were collected into tubes containing EDTA and placed on wet ice pending centrifugation. Plasma, CSF and brain tissue samples were stored at ca −80° C. until analysis of saquinavir by LC/MS. The vehicle used was polyethylene glycol (PEG-400)1 Tween 20 (9:1; v:v).
(§2) A total of 16 male Sprague Dawley rats were received from Charles River Canada (Saint-Constant, Quebec). Animals were approximately 9 weeks of age at arrival and weighed ca 312-340 g. Four males were randomly assigned to each of Groups 1, 2, 3 and 4. On the day of dosing and following an overnight fast, animals were weighed (ca 305-323 g) and were administered their respective combination of doses. Animals of Groups 1 and 3 received a single oral dose of ONT-093 (20 mg/kg) by gavage at a dose volume of 2 mL/kg. Animals of Groups 2 and 4 received a single oral dose of the vehicle by gavage at a dose volume of 2 mL/kg. Approximately 30 min following administration of either ONT-093 or the vehicle, all animals received a single oral dose of saquinavir (20 mg/kg) by gavage at a dose volume of 1 mL/kg.
(§3) Following administration of saquinavir, blood samples (ca 0.3 mL in EDTA) were obtained from all rats of Groups 1 and 2 by jugular venipuncture during anesthesia with isoflurane (Ohmeda Pharmaceutical Products) at each of the following time-points: pre-dose (prior to administration of ONT-093 or vehicle) and 0.25, 0.5, 1, 2, 4 and 8 hr post-dose. Following administration of saquinavir, CSF was obtained from all animals of Groups 3 and 4 at 30 min following dose administration. CSF was collected (in tubes containing no anticoagulant) from the cistema magna during anesthesia with isoflurane. Following CSF collection, the animals were sacrificed by exsanguination via puncture of the vena cava and the brain was harvested from all these rats. Immediately following collection, all samples (blood, CSF and brain) were placed on ice until further processing or storage. Blood samples were centrifuged (ca 3080 g at ca 4° C. for 10 min) and the resulting plasma samples were stored at ca −80° C. pending analysis. CSF samples and brains were stored at ca −80° C. pending analysis.
(§4) Plasma samples, CSF samples and brains were analyzed for unchanged saquinavir using an LC/MS assay. Pharmacokinetic analysis was performed on plasma concentrations using the PhAST Software Program, Version 2.2-00 (Phoenix International Life Sciences Inc.). The highest observable concentration was assumed to be the peak concentration (Cmax); Time to Cmax was denoted Tmax. The area under the plasma concentration versus time-curve from time zero to the last measurable concentration [AUC(tf] was calculated by the linear trapezoidal method. Where applicable, numerical values were subjected to calculation of group means and % CV. Student-T-test with Satterthwaite approximation was performed on AUC and Cmax values to compare ONT-093 treated animals versus vehicle treated animals using SAS software program, Version 6.12 (SAS Institute Inc., Gary, N.C.). Where values were below limit of quantification, zero was used for pharmacokinetic analysis. The bioavailability (F) of saquinavir when administered with ONT-093 was calculated relative to the AUC values obtained from the animals receiving saquinavir following administration of the vehicle.

[6] = Clinical signs after saquinavir dose; format: in vivo, Sprague Dawley rats
Protocol: This clinical sign was no longer observable approximately 30 to 60 min after it was first observed.

in vivo = settings: male, Sprague Dawley, rat; for concentration at 2 hr: 2 hr Post-Dose
Protocol: as §1, §2, §3, §4

- Cmax ([1]; control of the OCFB series): 37 ng/mL
- AUC(0-t) ([1]; control of the OCFB series): 32 ng·h/mL
- Cmax ([1]; control of the OCM series): 30 ng/mL
- AUC(0-t) ([1]; control of the OCM series): 69 ng·h/mL
SMILES: CC(=O)O[C@@]12CO[C@@H]1C[C@H](O)[C@@]1(C)C(=O)[C@H](O)C3=C(C)[C@@H](OC(=O)[C@H](O)[C@@H](NC(=O)OC(C)(C)C)c4ccccc4)C[C@@](O)([C@@H](OC(=O)c4ccccc4)[C@H]21)C3(C)C [Docetaxel]

SMILES: CN(C)C(=O)C(CCN1CCC(O)(c2ccc(Cl)cc2)CC1)(c1ccccc1)c1ccccc1 [Loperamide]
- Effect on mouse hot-plate escape time [2]: no effect

SMILES: CC(=O)O[C@H]1C(=O)[C@@]2(C)[C@H]([C@H](OC(=O)c3ccccc3)[C@]3(O)C[C@H](OC(=O)[C@H](O)[C@@H](NC(=O)c4ccccc4)c4ccccc4)C(C)=C1C3(C)C)[C@]1(OC(C)=O)CO[C@@H]1C[C@@H]2O [Paclitaxel]
- Cmax ([1]; control of the OCFB series): 99 ng/mL
- AUC(0-t) ([1]; control of the OCFB series): 266 ng·h/mL
- Cmax ([1]; control of the OCM series): 75 ng/mL
- AUC(0-t) ([1]; control of the OCM series): 189 ng·h/mL
- AUC(0-t) [3]: 67 ng·h/mL
- half-life ([3]; read-out: Paclitaxel mean terminal phase half-life (t1/2) (converted)): 3.9 h
- In vivo tumor growth compared to the vehicle control (MDA/LCC6^MDR1 tumors): no significant effect
- Survival [4]: 0/4
- Lethality (tumor-bearing mice): 50%
- Tumor growth / tumor formation (tumor-bearing mice): significantly inhibited tumor growth, but did not completely prevent tumor formation at any injection site

- Saquinavir Concentration in Brain [5]: BLQ (3×) and 1.40 ng/mL
- Saquinavir Concentration in CSF [5]: BLQ
- concentration at 30 min ([5]; male, Sprague Dawley, rat, brain, oral, 20 mg/kg): 1.4 ng/mL
- Rats with slight salivation immediately following the saquinavir dose ([6]; Group 1 (ONT-093 pretreatment)): 3 of 4
- Rats with slight salivation immediately following the saquinavir dose ([6]; Group 2 (vehicle pretreatment)): 2 of 4
- Rats with slight salivation immediately following the saquinavir dose ([6]; Group 3 (ONT-093 pretreatment)): 3 of 4
- Rats with slight salivation immediately following the saquinavir dose ([6]; Group 4 (vehicle pretreatment)): 4 of 4
- concentration at 0.25 hr (in vivo; Concentration of Saquinavir in plasma, 0.25 hr Post-Dose, Mean): 84.6 ng/mL
- concentration at 0.5 hr (in vivo; Concentration of Saquinavir in plasma, 0.5 hr Post-Dose, Mean): 72.5 ng/mL
- concentration at 1 hr (in vivo; Concentration of Saquinavir in plasma, 1 hr Post-Dose, Mean): 99.5 ng/mL
- concentration at 2 hr (in vivo; Concentration of Saquinavir in plasma): 205 ng/mL
- concentration at 2 hr (in vivo; Concentration of Saquinavir in plasma, Mean): 157 ng/mL
- concentration at 4 hr (in vivo; Concentration of Saquinavir in plasma, 4 hr Post-Dose, Mean): 48.5 ng/mL
- concentration at 8 hr (in vivo; Concentration of Saquinavir in plasma, 8 hr Post-Dose, Mean): 4.92 ng/mL
- AUC(0-inf) (in vivo; po, 20 mg/kg): 524 ng·h/mL
- AUC(0-t) (in vivo; po, 20 mg/kg): 514 ng·h/mL
- CL/F (in vivo; po, 20 mg/kg): 654 mL/min/kg
- Cmax (in vivo; po, 20 mg/kg): 181 ng/mL
- Tmax (in vivo; po, 20 mg/kg): 1.6 h
SMILES: CC(C)(C)NC(=O)[C@@H]1C[C@@H]2CCCC[C@@H]2CN1C[C@@H](O)[C@H](Cc1ccccc1)NC(=O)[C@H](CC(N)=O)NC(=O)c1ccc2ccccc2n1 [Saquinavir]
